Patent publication US9945845B2, “Methods of screening using amphibians” (priority 2009, dated 2018)
Like-named read-outs stand apart in the source and are kept apart here.

System: Xenopus embryos
Conditions: for Type of edema Ventral: ‡ = edemas also detected in the gut; for Type of edema Periocular: * = causing bulging eyes, # = bilateral, causing narrow-set eyes
Description: 10-μl aliquots of the chemicals were transferred from the mother plates with a liquid handling robot (Aquarius, Tecan) into 96-well tissue culture plates to generate diluted stock plates (2 mM in DMSO; 50 μl final volume). […] Once embryos reached stage 31 (37 hpf), 10-μl aliquots of the diluted chemicals were added to the wells. […] Negative control wells contained embryos in screening medium and 0.1×MMR only. Embryos were treated with the chemicals in a humidified incubator at 23° C. over a timeframe of 4 days. Embryos were manually scored for the presence of edema or other morphological phenotypes using a teaching dissecting microscope (SV6; Carl Zeiss). Two investigators performed separately the scoring daily at stages 39 (56 hpf), 41 (76 hpf), 45 (98 hpf), and 47 (120 hpf). Dead embryos were removed and 100 μl of water was added daily to each well to compensate for fluid evaporation. […] For imaging at the end of the experiments. Xenopus tadpoles were anesthetized with 0.05% tricaine (Sigma #A5040) in 0.1×MMR. Images were captured using a stereomicroscope (SteREO Lumar V12; Carl Zeiss) equipped with a digital camera (AxioCam Color; Carl Zeiss).
Xenopus late tailbud embryos at stage 31 (37 hpf) were selected for compound treatment. […] Embryos were arrayed into 48-well dishes (five per well) and treated with test compounds at a concentration of 20 μM in the presence of 1% DMSO. […] All 48-well dishes also contained replicates of negative controls (1% DMSO). Embryos were monitored daily over a period of four days for edema formation. In addition, drug-induced lethality and other externally visible phenotypes were scored. On average, 320 compounds were screened per week.

[1] = compounds causing cytotoxicity, 20 μM, 1% DMSO, treatment from stage 31, Nieuwkoop & Faber stage
[2] = compounds causing edema, 20 μM, 1% DMSO, treatment from stage 31, scored to stage 47
[3] = embryonic stage, — = no stage of lethality given
[4] = onset of edema, 20 μM, 1% DMSO, treatment from stage 31, Nieuwkoop & Faber stage
[5] = compounds causing lethality, 20 μM, 1% DMSO, treatment from stage 31, Nieuwkoop & Faber stage

O=C1NCN(c2ccccc2)C12CCN(CCCC(c1ccc(F)cc1)c1ccc(F)cc1)CC2 [Fluspirilene]
Lethality (NF) [1]: 32 NF

C=C[C@@]1(C)CC(=O)[C@]2(O)[C@@]3(C)[C@@H](O)CCC(C)(C)[C@@H]3[C@H](O)[C@H](OC(C)=O)[C@@]2(C)O1 [Forskolin]
Lethality (NF) [2]: 41/42
Type of edema Pericordial (embryonic stage): 39 embryonic stages according to Nieuwkoop and Faber (NF)
Type of edema Proctodeal (embryonic stage): 39 embryonic stages according to Nieuwkoop and Faber (NF)
Lethality [3]: 41/42
Type of edema Ventral (embryonic stage): 39 embryonic stages according to Nieuwkoop and Faber (NF)
Onset (NF) [4]: 39/40

Cl.Cl.Fc1ccc(C(OCCN2CCN(CCCc3ccccc3)CC2)c2ccc(F)cc2)cc1 [GBR-12909 dihydrochloride, 1-[2-[bis(4-Fluorophenyl)methoxy]ethyl]-4-[3-phenylpropyl]piperazine dihydrochloride]
Type of edema Pronephric (embryonic stage): 45 embryonic stages according to Nieuwkoop and Faber (NF)
Type of edema Periocular (embryonic stage): 45 embryonic stages according to Nieuwkoop and Faber (NF)
Type of edema Ventral (embryonic stage): 45 embryonic stages according to Nieuwkoop and Faber (NF)

CC(C)(Sc1ccc(CCN(CCCCC2CCCCC2)C(=O)NC2CCCCC2)cc1)C(=O)O [GW7647]
Lethality (NF) [1]: 32 NF

O=C1Cc2c([nH]c3ccc(Br)cc23)-c2ccccc2N1 [Kenpaullone]
Type of edema Periocular (embryonic stage): 45 embryonic stages according to Nieuwkoop and Faber (NF)
Type of edema Ventral (embryonic stage): 45 embryonic stages according to Nieuwkoop and Faber (NF)

Cc1c(CC(C)(C)C(=O)O)n(Cc2ccc(Cl)cc2)c2ccc(F)cc12 [L-655,240, 3-[1-(4-Chlorobenzyl)-5-fluoro-3-methyl-indol-2-yl]-2,2-dirriethyl propanoic acid]
Lethality (NF) [1]: 32 NF

COc1cc2nc(N3CCN(C(=O)OCc4ccccc4)[C@H](C(=O)NC(C)(C)C)C3)nc(N)c2cc1OC [L-765,314, (2S)-4-(4-Amino-6,7-dimethoxy-2-quinazolinyl)-2-[[(1,1-Dimethylethyl)amino]carbonyl]-1-piperazinecarboxylic acid, phenylmethyl ester]
Type of edema Periocular (embryonic stage): 41/42 #
Type of edema Ventral (embryonic stage): 45 embryonic stages according to Nieuwkoop and Faber (NF)
Onset (NF) [4]: 41/42

CCCCCCCCCCCCCCCCOC[C@H](COCC(F)(F)F)OP(=O)(O)OC.[Li] [MJ33, 1-Hexadecyl-3-(trifluoroethyl)-sn-glycero-2-phosphomethanol lithium]
Lethality (NF) [1]: 32 NF

Cc1ccc(Cl)c(Nc2ccccc2C(=O)O)c1Cl.[Na] [Meclofenamic acid sodium, 2-([2,6-Dichloro-3-methylphenyl]amino)benzoic acid sodium]
Lethality (NF) [2]: 41/42
Type of edema Pericordial (embryonic stage): 35/36
Lethality [3]: 41/42
Onset (NF) [4]: 35/36

Cl.O=C(CCCN1CCC2(CC1)C(=O)N(CCc1ccc(N=C=S)cc1)CN2c1ccccc1)c1ccc(F)cc1 [N-(p-Isothiocyanatophenethyl)spiperone hydrochloride]
Type of edema Periocular (embryonic stage): 45 embryonic stages according to Nieuwkoop and Faber (NF)
Type of edema Ventral (embryonic stage): 45 embryonic stages according to Nieuwkoop and Faber (NF)
Onset (NF) [4]: 45 NF

CCCCCCCC/C=C\CCCCCCCC(=O)NCCc1ccc(O)c(O)c1 [N-Oleoyldopamine]
Lethality (NF) [5]: 41 NF

COC(=O)C1=C(C)NC(C)=C(C(=O)OC)C1c1ccccc1[N+](=O)[O-] [Nifedipine]
Type of edema Pericordial (embryonic stage): 41/42
Type of edema Periocular (embryonic stage): 41/42
Type of edema Ventral (embryonic stage): 45 embryonic stages according to Nieuwkoop and Faber (NF)
Onset (NF) [4]: 41/42

COCCOC(=O)C1=C(C)NC(C)=C(C(=O)OC(C)C)C1c1cccc([N+](=O)[O-])c1 (stereo not drawn) [Nimodipine, 1,4-Dihydro-2,6-dimethyl-4-(3-nitrophenyl)-3,5-pyridinecarboxylic acid 2-methoxyethyl 1-methylethyl ester]
Lethality (Xenopus laevis, in vivo): 41/42
Lethality (NF) (Xenopus laevis, in vivo): 41/42
Type of edema Pericordial (embryonic stage): 41/42
Onset (NF) [4]: 41/42

CCOC(=O)C1=C(C)NC(C)=C(C(=O)OC)C1c1cccc([N+](=O)[O-])c1 (stereo not drawn) [Nitrendipine, 1,4-Dihydro-2,6-dimethyl-4-(3-nitrophenyl)-3,5-pyridinecarboxylic acid ethyl methyl ester]
Lethality (NF) [5]: 45 NF

CCCCCCCCCCCCCC(=O)O[C@@H]1[C@@H](C)[C@@]2(O)[C@@H](C=C(CO)C[C@]3(O)C(=O)C(C)=C[C@@H]23)[C@@H]2C(C)(C)[C@]12OC(C)=O [Phorbol 12-myristate 13-acetate]
Lethality (NF) [1]: 32 NF

O=c1[nH]c2ccccc2n1C1CCN(CCCC(c2ccc(F)cc2)c2ccc(F)cc2)CC1 [Pimozide]
Lethality (NF) [2]: 45 NF
Type of edema Pericordial (embryonic stage): 41/42
Type of edema Pronephric (embryonic stage): 41/42
Lethality [3]: 45 embryonic stages according to Nieuwkoop and Faber (NF)
Type of edema Ventral (embryonic stage): 41/42
Onset (NF) [4]: 41/42

Br.C=CCN1CCc2cccc3c2[C@H]1Cc1ccc(O)c(O)c1-3 [R(-)-N-Allylnorapomorphine hydrobromide]
Lethality (NF) (compounds causing pigmentation defects, 20 μM, scored to stage 47): 40 NF
Onset (NF) (onset of pigmentation defects, 20 μM, 1% DMSO): 33/34

Nc1nc2ccc(OC(F)(F)F)cc2s1 [Riluzole, 2-Amino-6-(trifluoromethoxy)-benzothiazole]
Type of edema Pronephric (embryonic stage): 45 embryonic stages according to Nieuwkoop and Faber (NF)
Type of edema Periocular (embryonic stage): 45 embryonic stages according to Nieuwkoop and Faber (NF)
Type of edema Ventral (embryonic stage): 45 embryonic stages according to Nieuwkoop and Faber (NF)

Cc1nc2sccn2c(=O)c1CCN1CCC(=C(c2ccc(F)cc2)c2ccc(F)cc2)CC1 [Ritanserin]
Type of edema Pronephric (embryonic stage): 45 embryonic stages according to Nieuwkoop and Faber (NF)
Type of edema Periocular (embryonic stage): 41/42
Type of edema Ventral (embryonic stage): 41/42
Onset (NF) [4]: 41/42

O=C(c1cc(O)c(O)c([N+](=O)[O-])c1)c1ccccc1F [Ro 41-0960, 2′-Fluoro-3,4-dihydroxy-5-nitrobenzophenone]
Lethality (NF) [1]: 33/34

C=C(C)[C@H]1Cc2c(ccc3c2O[C@@H]2COc4cc(OC)c(OC)cc4[C@@H]2C3=O)O1 [Rotenone]
Lethality (NF) [1]: 32 NF

CC(=O)c1c(O)c(C)c(O)c(Cc2c(O)c3c(c(C(=O)/C=C/c4ccccc4)c2O)OC(C)(C)C=C3)c1O [Rottlerin]
Lethality (NF) [1]: 32 NF

CC#CCOC(=O)c1c(C)nc2sc3c(c2c1N)CCC(O)C3 (stereo not drawn) [SB 205384, 4-Amino-7-hydroxy-2-methyl-5,6,7,8-tetrahydrobenzo[b]thieno[2,3-b]pyridine-3-carboxylic acid but-2-ynyl ester]
Lethality (NF) (compounds causing other phenotypic defects, 20 μM, scored to stage 47): 46 NF
Onset (NF) (onset of other phenotypic defects, 20 μM, 1% DMSO): 40 NF

COc1ccc(CCCOC(Cn2ccnc2)c2ccc(OC)cc2)cc1.Cl (stereo not drawn) [SKF 96365, 1-(beta-[3-(4-Methoxyphenyl)propoxy]-4-methoxyphenethyl)-1H-imidazole hydrochloride]
Lethality (NF) [2]: 41/42
Type of edema Pericordial (embryonic stage): 39 embryonic stages according to Nieuwkoop and Faber (NF)
Type of edema Proctodeal (embryonic stage): 40 embryonic stages according to Nieuwkoop and Faber (NF)
Lethality [3]: 41/42
Type of edema Ventral (embryonic stage): 40 embryonic stages according to Nieuwkoop and Faber (NF)

O=C(O)c1ccccc1Nc1cccc(OCc2ccc3ccccc3n2)c1 [SR 2640, 2-[[3-(2-Quinolinylmethoxy)phenyl]amino]-benzoic acid]
Lethality (NF) [1]: 32 NF

C[n+]1cc2c3c(ccc2c2ccc4cc5c(cc4c21)OCO5)OCO3.[Cl-] [Sanguinarine chloride, 13-Methyl-[1,3]benzodioxolo[5,6-c]-1,3-dioxolo[4,5-i]phenanthridinium chloride]
Lethality (NF) [1]: 32 NF
